Like-named read-outs stand apart in the source and are kept apart here.
Target: T1, human CB2 receptors (Homo sapiens, UniProt P34972)
T1 construct: expressed in transfected cells; membrane preparations
Assay: Affinity for human CB2 cannabinoid receptors: inhibition of [3H]-CP55940 binding to transfected CHO-K1 cell membranes
Settings: inhibition constant value range, [3H]-CP55940 1 nM, Cheng-Prusoff
Method: The affinity of the compounds of the present invention for the different sub-types of cannabinoid receptors was measured according to procedures analogous to those described hereafter for the human CB2 receptor.
Study of the Affinity of the Compounds for the Human CB2 Cannabinoid Receptors:
The affinity of the compounds of the invention for the human CB2 receptors is determined by measuring the inhibition of the binding of [^3H]-CP55940 to transfected CHO-K1 cell membrane preparations.
The CHO-K1 cells expressing the human CB2 receptors in stable fashion are cultured in an RPMI 1640 medium containing 10% foetal calf serum, 2 mM of glutamine, 100 U/ml of penicillin, 0.1 mg/ml of streptomycin and 0.5 mg/ml of G418. The cells are collected with 0.5 mM of EDTA and centrifuged at 500 g for 5 minutes at 4° C. The pellet is re-suspended in phosphate buffered saline medium (PBS) and centrifuged at 500 g for 5 minutes at 4° C. The pellet is re-suspended in a Tris 50 mM buffer medium at pH 7.4 and centrifuged at 500 g for 5 minutes at 4° C. The cells are lysed by sonication and centrifuged at 39,000 g for 10 minutes at 4° C. The pellet is re-suspended in the Tris 50 mM buffer medium at pH 7.4 and centrifuged at 50,000 g for 10 minutes at 4° C. The membranes obtained in this last pellet are stored at −80° C.
Measurement of the competitive inhibition of the binding of the [^3H]-CP55940 to the CB2 receptors is carried out in duplicate using 96-well polypropylene plates. The cell membranes (10 μg of proteins/well) are incubated with the [^3H]-CP55940 (1 nM) for 60 minutes at 25° C. in a Tris-HCl 50 mM buffer medium, pH 7.4, comprising 0.1% bovine serum albumin (BSA), 5 mM of MgCl2, and 50 μg/ml of bacitracin.
The bound [^3H]-CP55940 is separated from the free [^3H]-CP55940 by filtration through GF/C glass fibre filter plates (Unifilter, Packard) pre-impregnated with 0.1% polyethylenimine (P.E.I.), using a Filtermate 196 (Packard). The filters are washed with Tris-HCl 50 mM buffer, pH 7.4 at 0-4° C. and the radioactivity present is determined using a counter (Packard Top Count).
The specific binding is obtained by subtracting the non-specific binding (determined in the presence of 0.1 μM of WIN55212-2 from the total binding). The data are analyzed by computer-assisted non-linear regression (MDL). For each test, a Cheng-Prusoff correction is made in order to convert the IC50 to the inhibition constant, Ki.
where [L] is the concentration of the radioligand used in the test and Kd is the radioligand equilibrium dissociation constant.

T1 sequence (P34972 whole entry): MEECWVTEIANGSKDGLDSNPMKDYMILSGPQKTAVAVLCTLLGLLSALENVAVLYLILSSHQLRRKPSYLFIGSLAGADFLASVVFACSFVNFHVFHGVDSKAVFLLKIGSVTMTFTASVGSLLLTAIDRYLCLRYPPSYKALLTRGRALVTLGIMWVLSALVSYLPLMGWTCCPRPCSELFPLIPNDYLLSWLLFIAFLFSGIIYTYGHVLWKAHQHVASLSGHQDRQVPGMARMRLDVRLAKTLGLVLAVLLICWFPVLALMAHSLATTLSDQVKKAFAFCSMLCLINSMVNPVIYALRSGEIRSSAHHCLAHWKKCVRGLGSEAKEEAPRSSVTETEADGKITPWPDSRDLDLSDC

Row | SMILES | Ki (read-out: Ki < 5 μM) [µM] | Ki (read-out: Ki < 0.5 μM) [µM]
1 | COc1ccccc1CCn1c(-c2ccc(-c3ccccc3)cc2)nc2ccsc2c1=O [Example 1] | < 5 | –
2 | COc1ccc(CCn2c(-c3ccc(-c4ccccc4)cc3)nc3ccsc3c2=O)cc1OC [Example 2] | < 5 | –
3 | O=c1c2sccc2nc(-c2ccc(-c3ccccc3)cc2)n1CCc1cccs1 [Example 3] | < 5 | –
4 | O=c1c2sccc2nc(-c2ccc(-c3ccccc3)cc2)n1CCc1ccc(Cl)cc1Cl [Example 6] | < 5 | < 0.5
5 | O=c1c2sccc2nc(-c2ccc(-c3ccccc3)cc2)n1CCc1ccc(Cl)c(Cl)c1 [Example 7] | < 5 | < 0.5
6 | Cc1ccccc1CCn1c(-c2ccc(-c3ccccc3)cc2)nc2ccsc2c1=O [Example 8] | < 5 | –
7 | Cc1ccc(CCn2c(-c3ccc(-c4ccccc4)cc3)nc3ccsc3c2=O)cc1C [Example 9] | < 5 | –
8 | O=c1c2sccc2nc(-c2ccc(-c3ccccc3)cc2)n1CCC1CCCCC1 [Example 11] | < 5 | < 0.5
9 | O=c1c2sccc2nc(-c2ccc(-c3ccccc3)cc2)n1CCC1CCOCC1 [Example 12] | < 5 | < 0.5
10 | O=c1c2sccc2nc(-c2ccc(-c3ccccc3)cc2)n1CCc1ccccc1 [Example 13] | < 5 | < 0.5
11 | O=c1c2sccc2nc(-c2ccc(-c3ccccc3)cc2)n1CCc1cccnc1 [Example 14] | < 5 | –
12 | O=c1c2sccc2nc(-c2ccc(-c3ccccc3)cc2)n1CCc1ccncc1 [Example 15] | < 5 | < 0.5
13 | O=c1c2sccc2nc(-c2ccc(C3CCCCC3)cc2)n1CCC1CCCCC1 [Example 16] | < 5 | < 0.5
14 | O=c1c2sccc2nc(-c2ccc(C3CCCCC3)cc2)n1CCC1CCOCC1 [Example 17] | < 5 | < 0.5
15 | O=c1c2sccc2nc(-c2ccc(C3CCCCC3)cc2)n1CCc1ccccc1 [Example 18] | < 5 | < 0.5
16 | O=c1c2sccc2nc(-c2ccc(-c3cccs3)cc2)n1CCC1CCOCC1 [Example 19] | < 5 | –
17 | O=c1c2sccc2nc(-c2ccc(-c3cccs3)cc2)n1CCc1ccccc1 [Example 20] | < 5 | < 0.5
18 | O=c1c2sc3ccccc3c2nc(-c2ccc(-c3ccccc3)cc2)n1CCC1CCOCC1 [Example 22] | < 5 | –

More lines, now with the values ahead:

Row | Ki (read-out: Ki < 5 μM) [µM] | Ki (read-out: Ki < 0.5 μM) [µM] | SMILES
19 | < 5 | < 0.5 | O=c1c2sccc2nc(-c2ccc(-c3ccccc3)cc2)n1CCN1CCCCC1 [Example 24]
20 | < 5 | < 0.5 | O=C1c2ccccc2C(=O)c2cc(-c3nc4ccsc4c(=O)n3CCN3CCCCC3)ccc21 [Example 25]
21 | < 5 | < 0.5 | O=c1c2sccc2nc(-c2ccc(-c3ccccc3)cc2)n1CCN1CCCC1 [Example 26]
22 | < 5 | < 0.5 | O=c1c2sccc2nc(-c2ccc(-c3ccccc3)cc2)n1CCN1CCOCC1 [Example 27]
23 | < 5 | < 0.5 | O=C(c1ccccc1)c1ccc(-c2nc3ccsc3c(=O)n2CCN2CCCCC2)cc1 [Example 29]
24 | < 5 | < 0.5 | O=C(c1ccccc1)c1ccc(-c2nc3ccsc3c(=O)n2CCN2CCOCC2)cc1 [Example 30]
25 | < 5 | < 0.5 | O=c1c2sccc2nc(-c2ccc(Cc3ccccc3)cc2)n1CCN1CCCCC1 [Example 32]
26 | < 5 | < 0.5 | O=c1c2sccc2nc(-c2ccc(-c3ccccc3)cc2)n1CCN1CCCCCC1 [Example 34]
27 | < 5 | < 0.5 | O=c1c2sccc2nc(-c2ccc(C3CCCCC3)cc2)n1CCN1CCCC1 [Example 35]
28 | < 5 | < 0.5 | O=c1c2sccc2nc(-c2ccc(C3CCCCC3)cc2)n1CCN1CCCCC1 [Example 36]
29 | < 5 | < 0.5 | O=c1c2sccc2nc(-c2ccc(C3CCCCC3)cc2)n1CCN1CCOCC1 [Example 37]
30 | < 5 | < 0.5 | O=c1c2sccc2nc(-c2ccc(C3CCCCC3)cc2)n1CCN1CCCCCC1 [Example 38]

— patent US20090325933A1, “Pyrimidinone Derivatives and Their Use as a Drug” (Ipsen Pharma S.A.S., priority 2006, published 2009)
